{
  "source": "ChEMBL document CHEMBL1201862",
  "about": "“PubChem BioAssay data set” (2004)",
  "key": {"[1]": {"target": "T1, Disintegrin and metalloproteinase domain-containing protein 17 (Homo sapiens, UniProt P78536)", "T1 sequence (P78536 whole entry, the tested form may be a part)": "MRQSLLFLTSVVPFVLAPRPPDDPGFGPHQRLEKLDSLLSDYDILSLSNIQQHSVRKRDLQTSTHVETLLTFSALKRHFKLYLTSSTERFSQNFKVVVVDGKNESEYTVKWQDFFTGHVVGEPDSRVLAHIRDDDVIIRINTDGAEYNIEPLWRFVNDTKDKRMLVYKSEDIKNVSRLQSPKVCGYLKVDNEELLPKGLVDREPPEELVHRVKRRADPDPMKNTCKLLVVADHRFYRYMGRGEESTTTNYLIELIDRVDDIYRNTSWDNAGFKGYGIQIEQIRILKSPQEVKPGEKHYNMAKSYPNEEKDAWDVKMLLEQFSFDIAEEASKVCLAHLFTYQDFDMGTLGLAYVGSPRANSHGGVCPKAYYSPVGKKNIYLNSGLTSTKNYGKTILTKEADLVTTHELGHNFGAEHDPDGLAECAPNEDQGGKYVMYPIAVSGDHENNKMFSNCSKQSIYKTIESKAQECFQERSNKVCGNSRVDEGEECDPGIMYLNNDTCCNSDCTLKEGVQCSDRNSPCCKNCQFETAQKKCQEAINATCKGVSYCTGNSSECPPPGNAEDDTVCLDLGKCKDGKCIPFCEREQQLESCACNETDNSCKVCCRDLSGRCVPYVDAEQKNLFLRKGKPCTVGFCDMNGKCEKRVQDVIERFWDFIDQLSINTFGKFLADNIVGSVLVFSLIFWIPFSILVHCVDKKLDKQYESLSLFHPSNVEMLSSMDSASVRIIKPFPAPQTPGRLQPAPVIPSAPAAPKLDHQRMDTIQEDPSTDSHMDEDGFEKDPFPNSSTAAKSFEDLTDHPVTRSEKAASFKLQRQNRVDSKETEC", "experiment": "exosite inhibitors of ADAM17, dose response, biochemical (AID 743260)"}, "[2]": {"experiment": "ADAM10 protease inhibitors, dose response, selectivity assay for ADAM17 exosite inhibitor project, biochemical, FRET peptide substrate, recombinant human ADAM10 (AID 743259);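 also: ADAM10 enzyme cleaving a FRET peptide substrate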"}, "[3]": {"experiment": "ADAM10 inhibitors, peptide cleavage, dose response, biochemical, QFRET (AID 743254);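 also: ADAM10 enzyme with the DM2 quenched FRET peptide as substrate; EDANS fluorescence gain as the protease cuts the substrate; inhibitor potency against ADAM10 proteolytic activity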"}, "[4]": {"experiment": "Luminescence Cell-Based Dose Retest to Confirm Inhibitors of Cancer Stem Cells. [Related pubchem assays (depositor defined):AID2717, AID2721]", "assay_type": "functional", "details": "Homo sapiens"}, "[5]": {"target": "T1, Disintegrin and metalloproteinase domain-containing protein 17", "experiment": "ADAM17 protease inhibitors, dose response, counter-screen for ADAM10 exosite inhibitor project, biochemical, quenched FRET substrate (AID 743253)"}, "[6]": {"experiment": "EDANS-DABCYL fluorescence interference, concentration series, dose response, artefact control for kallikrein-7 zymogen activator project, biochemical, fluorescence intensity, triplicate (AID 720493)"}, "[7]": {"target": "Kallikrein-7 (Homo sapiens, UniProt P49862)", "sequence (P49862 whole entry)": "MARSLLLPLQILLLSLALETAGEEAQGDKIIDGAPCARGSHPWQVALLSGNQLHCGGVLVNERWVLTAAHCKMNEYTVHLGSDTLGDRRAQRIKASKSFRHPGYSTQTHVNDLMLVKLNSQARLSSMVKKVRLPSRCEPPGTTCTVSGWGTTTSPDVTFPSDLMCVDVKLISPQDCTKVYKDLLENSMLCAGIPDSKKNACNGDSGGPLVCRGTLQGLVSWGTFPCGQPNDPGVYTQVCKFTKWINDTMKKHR", "experiment": "Fluorescence Intensity-based biochemical primary high throughput dose response assay to identify activators of kallikrein-7 (K7) zymogen."}, "[8]": {"experiment": "cells", "details": "A549"}, "[9]": {"experiment": "HepG2 cell cytotoxicity, dose response, cytotoxicity control, ATP luminescence, cherry-pick, set 6 (AID 1053125)", "assay_type": "functional, cell-based"}, "[10]": {"target": "Caspase-8 (Homo sapiens, UniProt Q14790)", "sequence (Q14790 217-374 limits assumed)": "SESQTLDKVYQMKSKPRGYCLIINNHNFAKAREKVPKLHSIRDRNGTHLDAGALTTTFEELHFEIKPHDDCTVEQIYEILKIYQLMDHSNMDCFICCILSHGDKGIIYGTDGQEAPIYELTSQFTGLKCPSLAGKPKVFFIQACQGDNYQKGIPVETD", "sequence (Q14790 385-479 limits assumed)": "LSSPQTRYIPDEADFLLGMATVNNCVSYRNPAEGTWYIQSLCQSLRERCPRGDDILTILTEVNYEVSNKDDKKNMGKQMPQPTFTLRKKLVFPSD", "experiment": "caspase-8 inhibition counter-screen, dose response, selectivity assay for caspase-6 inhibitor project, biochemical, Z-IETD-R110 fluorescence, cherry-picked samples (AID 743294)"}, "[11]": {"target": "Bcl-2-like protein 1 (Homo sapiens, UniProt Q07817)", "sequence (Q07817 whole entry)": "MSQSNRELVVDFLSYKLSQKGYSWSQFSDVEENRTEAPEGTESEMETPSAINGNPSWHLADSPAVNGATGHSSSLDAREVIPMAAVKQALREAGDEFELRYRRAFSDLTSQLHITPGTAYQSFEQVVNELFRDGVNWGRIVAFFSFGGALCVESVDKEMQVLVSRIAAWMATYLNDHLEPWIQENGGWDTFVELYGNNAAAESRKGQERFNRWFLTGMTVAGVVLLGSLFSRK", "experiment": "BCL-XL inhibitors, dose response, selectivity assay for MCL1 inhibitor project, biochemical, fluorescence polarization, 1536-well (AID 2218)"}, "[12]": {"target": "Caspase-7 (Homo sapiens, UniProt P55210)", "sequence (P55210 24-198 limits assumed)": "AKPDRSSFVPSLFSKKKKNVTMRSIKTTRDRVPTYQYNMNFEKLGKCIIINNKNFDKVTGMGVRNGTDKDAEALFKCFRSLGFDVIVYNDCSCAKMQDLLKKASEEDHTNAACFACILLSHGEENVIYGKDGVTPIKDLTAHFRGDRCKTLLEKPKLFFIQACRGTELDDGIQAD", "sequence (P55210 207-303 limits assumed)": "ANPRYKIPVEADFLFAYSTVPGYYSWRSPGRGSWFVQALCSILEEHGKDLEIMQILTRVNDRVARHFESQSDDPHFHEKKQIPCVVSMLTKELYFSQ", "experiment": "human caspase-7 inhibitors, dose response, selectivity assay for caspase-6 inhibitor project, biochemical, DEVD-R110 fluorescence, cherry-pick (AID 743295)", "assay_type": "[…]"}, "[13]": {"target": "Induced myeloid leukemia cell differentiation protein Mcl-1 (Homo sapiens, UniProt Q07820)", "sequence (Q07820 whole entry)": "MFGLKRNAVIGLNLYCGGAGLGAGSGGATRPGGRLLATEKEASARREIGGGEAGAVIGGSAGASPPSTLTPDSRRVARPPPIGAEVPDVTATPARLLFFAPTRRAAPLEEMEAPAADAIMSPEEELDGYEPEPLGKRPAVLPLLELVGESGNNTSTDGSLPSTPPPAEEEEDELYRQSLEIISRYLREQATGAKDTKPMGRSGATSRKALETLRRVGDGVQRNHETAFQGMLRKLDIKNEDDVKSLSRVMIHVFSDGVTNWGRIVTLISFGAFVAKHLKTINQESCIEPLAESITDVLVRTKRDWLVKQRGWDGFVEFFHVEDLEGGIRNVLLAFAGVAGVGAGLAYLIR", "experiment": "MCL1-BIM BH3 interaction inhibitors, dose response, biochemical, fluorescence polarization, BIM-BH3 peptide, 1536-well (AID 2217)"}, "[14]": {"target": "T2, Caspase-6 (Homo sapiens, UniProt P55212)", "T2 sequence (P55212 whole entry)": "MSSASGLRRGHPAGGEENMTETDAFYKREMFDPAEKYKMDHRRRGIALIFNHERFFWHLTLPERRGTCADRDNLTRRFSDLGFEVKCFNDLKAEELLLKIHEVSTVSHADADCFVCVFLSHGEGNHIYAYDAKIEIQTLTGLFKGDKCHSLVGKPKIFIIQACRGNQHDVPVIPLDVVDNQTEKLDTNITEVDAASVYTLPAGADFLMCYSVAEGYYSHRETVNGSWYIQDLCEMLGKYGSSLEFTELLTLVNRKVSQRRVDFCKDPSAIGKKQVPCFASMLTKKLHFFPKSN", "experiment": "human caspase-6 inhibitors, dose response, biochemical, VEID-R110 fluorescence, cherry-pick (AID 720632)"}, "[15]": {"experiment": "inhibitors of HIV Env-driven cell fusion, dose response, cherry-pick (AID 652057)", "assay_type": "functional, cell-based"}, "[16]": {"experiment": "CEM21 lymphoblast cell cytotoxicity, dose response, cytotoxicity control for viral fusion inhibitor project, CellTiter-Glo luminescence, cherry-picked (AID 652042);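 also: potency for signal decrease meaning cytotoxicity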", "assay_type": "functional, cell-based"}, "[17]": {"experiment": "non-specific cell cytotoxicity, dose response, cytotoxicity control for PAX8 inhibitor project, plate reader, dry powder samples (AID 743021)", "assay_type": "functional, cell-based"}, "[18]": {"experiment": "inhibitors of clade B AD8 Env fusion, dose response, cell-based, cherry-pick (AID 652062);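 also: potency is for inhibitors of fusion seen as a drop in luminescence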", "assay_type": "functional"}, "[19]": {"experiment": "off-target signal loss in HeLa-CEM21 co-culture – HeLa F-luc CTL cells, cherry-picked, counter-screen for HIV-1 Env fusion inhibitor project, dose response (AID 652040);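 also: potency for signal decrease marking cytotoxic or nonspecific inhibition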", "assay_type": "functional, cell-based"}, "[20]": {"experiment": "HEK293T cell cytotoxicity, dose response, cytotoxicity control for HIV Vif inhibitor project, cherry-picks (AID 652208)", "assay_type": "functional, cell-based"}, "[21]": {"experiment": "ZM109 Env clade C HIV-1 fusion inhibitors, dose response, HeLa effector, CEM target cells, luciferase, cherry-pick (AID 652058)", "assay_type": "functional, cell-based"}, "[22]": {"target": "Paired box protein Pax-8 (Homo sapiens, UniProt Q06710)", "sequence (Q06710 whole entry)": "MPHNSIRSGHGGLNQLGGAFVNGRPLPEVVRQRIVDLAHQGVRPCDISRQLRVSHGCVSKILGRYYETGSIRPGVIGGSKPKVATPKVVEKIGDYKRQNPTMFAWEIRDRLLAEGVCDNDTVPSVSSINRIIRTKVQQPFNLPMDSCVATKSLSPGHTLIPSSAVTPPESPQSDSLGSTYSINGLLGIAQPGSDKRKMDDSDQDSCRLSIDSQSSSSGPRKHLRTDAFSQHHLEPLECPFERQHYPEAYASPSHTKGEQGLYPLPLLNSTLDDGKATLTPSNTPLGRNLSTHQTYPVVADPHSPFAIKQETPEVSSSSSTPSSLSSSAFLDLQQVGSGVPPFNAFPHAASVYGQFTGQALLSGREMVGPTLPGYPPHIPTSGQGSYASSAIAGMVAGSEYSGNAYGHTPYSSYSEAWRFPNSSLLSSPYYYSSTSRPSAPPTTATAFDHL", "experiment": "inhibitors of PAX8-driven TPO luciferase reporter, dose response, RMG-I cells, cherry-pick (AID 687027);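 also: luciferase reporter driven by Pax8 target thyroperoxidase promoter measured by SteadyGlo luminescence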", "assay_type": "functional, cell-based"}, "[23]": {"target": "T3, Microphthalmia-associated transcription factor (Homo sapiens, UniProt O75030)", "T3 sequence (O75030 whole entry)": "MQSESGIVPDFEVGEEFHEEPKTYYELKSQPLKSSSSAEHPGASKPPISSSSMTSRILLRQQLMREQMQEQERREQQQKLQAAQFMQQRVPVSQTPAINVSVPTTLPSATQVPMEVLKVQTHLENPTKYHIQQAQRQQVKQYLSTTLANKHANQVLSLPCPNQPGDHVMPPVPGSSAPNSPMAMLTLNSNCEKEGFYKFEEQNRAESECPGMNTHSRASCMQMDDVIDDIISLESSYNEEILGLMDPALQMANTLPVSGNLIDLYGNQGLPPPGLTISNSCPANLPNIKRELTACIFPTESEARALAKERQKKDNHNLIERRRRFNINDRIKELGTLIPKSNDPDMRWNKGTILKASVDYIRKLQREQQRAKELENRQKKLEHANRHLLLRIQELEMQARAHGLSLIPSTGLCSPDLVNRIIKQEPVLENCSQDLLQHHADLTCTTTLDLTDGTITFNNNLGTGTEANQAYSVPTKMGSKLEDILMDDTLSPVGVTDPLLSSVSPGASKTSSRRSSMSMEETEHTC", "experiment": "TRPM1 promoter luciferase signal decrease, dose response, MITF inhibitor project, cell-based, SK-MEL-5, cherry-picked, set 3 (AID 493073)", "assay_type": "functional"}, "[24]": {"experiment": "Counterscreen for inhibitors of Trypanosoma brucei methionyl tRNA synthetase (MetRS): Luminescence-based cell-based high throughput dose response assay to identify compounds that are cytotoxic to Jurkat human T lymphocyte cells.", "assay_type": "functional"}, "[25]": {"experiment": "Late stage counterscreen for inhibitors of Trypanosoma brucei methionyl tRNA synthetase (MetRS): Luminescence-based cell-based high throughput dose response assay to identify compounds that are cytotoxic to Jurkat human T lymphocyte cells.", "assay_type": "functional"}, "[26]": {"target": "T4, Methionyl-tRNA synthetase, putative (Trypanosoma brucei brucei, UniProt Q38C91)", "T4 sequence (Q38C91 whole entry)": "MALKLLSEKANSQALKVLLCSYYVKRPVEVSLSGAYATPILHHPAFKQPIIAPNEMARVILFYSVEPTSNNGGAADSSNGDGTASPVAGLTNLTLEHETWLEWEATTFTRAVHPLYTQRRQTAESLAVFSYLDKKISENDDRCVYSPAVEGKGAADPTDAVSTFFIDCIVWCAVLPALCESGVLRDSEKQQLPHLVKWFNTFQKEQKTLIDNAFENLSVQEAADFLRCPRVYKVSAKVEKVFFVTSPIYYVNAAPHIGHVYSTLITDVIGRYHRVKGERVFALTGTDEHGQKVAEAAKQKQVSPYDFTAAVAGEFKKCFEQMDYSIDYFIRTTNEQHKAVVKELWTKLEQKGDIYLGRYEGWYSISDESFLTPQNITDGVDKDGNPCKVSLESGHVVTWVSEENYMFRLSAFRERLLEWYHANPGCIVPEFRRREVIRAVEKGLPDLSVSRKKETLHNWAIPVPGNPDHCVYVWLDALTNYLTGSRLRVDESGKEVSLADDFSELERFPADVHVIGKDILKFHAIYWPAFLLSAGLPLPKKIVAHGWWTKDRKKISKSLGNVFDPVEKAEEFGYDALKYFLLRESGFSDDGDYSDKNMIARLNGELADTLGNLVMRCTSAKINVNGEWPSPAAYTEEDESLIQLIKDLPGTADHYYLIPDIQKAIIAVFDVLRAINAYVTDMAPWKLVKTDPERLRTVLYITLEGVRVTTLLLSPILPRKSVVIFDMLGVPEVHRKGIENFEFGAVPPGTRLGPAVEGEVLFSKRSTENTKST", "assay_type": "functional, Trypanosoma brucei brucei strain 927/4 GUTat10.1"}, "[27]": {"target": "T4, Methionyl-tRNA synthetase, putative", "assay_type": "functional, Trypanosoma brucei brucei strain 927/4 GUTat10.1", "remark": "listed apart in the source"}},
  "note": "The source made the active and inactive calls.",
  "data": [
    {"smiles": "COc1ccc(CNC(=O)CN(Cc2ccc(Cl)cc2)S(=O)(=O)c2ccccc2)cc1", "values": [
      {"measurement": "IC50", "setting": "[1]", "result": "> 69.5 µM (inactive)"},
      {"measurement": "IC50", "setting": "[2]", "result": "> 69.5 µM (inactive)"}
    ]},
    {"smiles": "Cc1cc(C)cc(NS(=O)(=O)c2ccc(Oc3ncc(C(F)(F)F)cc3Cl)cc2)c1", "values": [
      {"measurement": "IC50", "setting": "[3]", "result": "12 µM (inactive)"},
      {"measurement": "AC50", "setting": "[4]", "result": "2.09 µM (active)"},
      {"measurement": "IC50", "setting": "[5]", "result": "> 69.5 µM (inactive)"}
    ]},
    {"smiles": "CNc1cc(C)c(C#N)c2nc3ccccc3n12", "values": [
      {"measurement": "EC50", "setting": "[6]", "result": "> 2.58 µM (active)"},
      {"measurement": "EC50", "setting": "[7]", "result": "3.77 µM (active)"}
    ]},
    {"smiles": "O=C(NNc1c2ccccc2nc2ccccc12)c1ccc(O)cc1", "values": [
      {"measurement": "AC50", "setting": "[8]", "result": "> 52 µM (inactive)"},
      {"measurement": "AC50", "setting": "[9]", "result": "> 52 µM (inactive)"}
    ]},
    {"smiles": "CCCCN(C(=O)c1cccc(-n2cccc2)c1)c1c(N)n(CCC)c(=O)[nH]c1=O", "values": [
      {"measurement": "AC50", "setting": "[10]", "result": "> 70 µM (inactive)"},
      {"measurement": "IC50", "setting": "[11]", "result": "> 109 µM (not active)"},
      {"measurement": "AC50", "setting": "[12]", "result": "51.2 µM (active)"},
      {"measurement": "IC50", "setting": "[13]", "result": "> 12.1 µM (not active)"},
      {"measurement": "AC50", "setting": "[14]", "result": "1.93 µM (active)"}
    ]},
    {"smiles": "OCC1OC(n2cnc3c(NCc4ccco4)ncnc32)C(O)C1O", "note": "(configuration not stated)", "values": [
      {"measurement": "AC50", "setting": "[15]", "result": "7.32 µM (active)"},
      {"measurement": "AC50", "setting": "[16]", "result": "2.94 µM (active)"},
      {"measurement": "AC50", "setting": "[17]", "result": "1.38 µM (active)"},
      {"measurement": "AC50", "setting": "[18]", "result": "6.9 µM (active)"},
      {"measurement": "AC50", "setting": "[19]", "result": "36.8 µM (active)"},
      {"measurement": "AC50", "setting": "[20]", "result": "13.8 µM (active)"},
      {"measurement": "AC50", "setting": "[21]", "result": "6.03 µM (active)"},
      {"measurement": "AC50", "setting": "[22]", "result": "2.41 µM (active)"},
      {"measurement": "AC50", "setting": "[23]", "result": "3.88 µM (active)"}
    ]},
    {"smiles": "CN(Cc1cc(Cl)cc(Cl)c1)[C@H]1C[C@H]2c3[nH]c4ccccc4c3CCN2C(=O)[C@H]1CO", "values": [
      {"measurement": "IC50", "setting": "[24]", "result": "80.2 µM (inactive)"},
      {"measurement": "IC50", "setting": "[25]", "result": "31.7 µM (inactive)"},
      {"measurement": "IC50", "setting": "[26]", "result": "1.64 µM (active)"},
      {"measurement": "IC50", "setting": "[27]", "result": "1.33 µM (active)"}
    ]}
  ]
}
